Source: ChEMBL document CHEMBL4152251, “Lactam hybrid analogues of solonamide B and autoinducing peptides as potent S. aureus AgrC antagonists” (Eur J Med Chem, 2018)
Activity calls are given as the source filed them. The calls are words filed in the database; no cut-off is given here. Bridge positions count the residues as written; N and C are the ends. Square brackets hold non-standard residues; d marks the D form. Peptide text beside a SMILES is read from it. * marks the point of attachment. Decanoyl(3,6,9-trioxa) = COCCOCCOCC(=O)*; Decanoyl = CCCCCCCCCC(=O)*; Heptanoyl = CCCCCCC(=O)*; Orn = NCCC[C@H](N)C(=O)O; Dab = NCC[C@H](N)C(=O)O; Dap = NC[C@H](N)C(=O)O

What was measured:
[1] = molecular target: T1, Receptor-histidine kinase AgrC (Staphylococcus aureus) (UniProt O07911); assay: Inhibition of AIP-stimulated quorum sensing system AgrC activation in Staphylococcus aureus RN10829 harboring P3:blaZ fusion assessed as reduction in beta-lactamse activity at 5 ug/ml preincubated with organism followed by AIP addition measured after 45 mins by nitrocefin hydrolysis assay
T1 sequence (whole entry): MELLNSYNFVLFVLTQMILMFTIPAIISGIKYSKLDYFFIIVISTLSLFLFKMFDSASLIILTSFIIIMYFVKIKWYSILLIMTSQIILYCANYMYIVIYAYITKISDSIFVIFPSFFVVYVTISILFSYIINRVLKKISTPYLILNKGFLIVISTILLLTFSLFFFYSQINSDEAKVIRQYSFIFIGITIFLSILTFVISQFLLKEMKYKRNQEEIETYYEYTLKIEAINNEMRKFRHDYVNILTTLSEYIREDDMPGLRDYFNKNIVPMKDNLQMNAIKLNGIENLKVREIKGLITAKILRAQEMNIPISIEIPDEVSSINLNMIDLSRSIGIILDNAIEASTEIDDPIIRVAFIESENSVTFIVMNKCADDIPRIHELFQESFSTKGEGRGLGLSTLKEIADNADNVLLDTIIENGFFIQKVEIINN

[2] = molecular target: T2, Receptor-histidine kinase AgrC (Staphylococcus aureus, UniProt O07911); assay: Inhibition of AIP-stimulated quorum sensing system AgrC activation in Staphylococcus aureus RN10829 harboring P3:blaZ fusion assessed as reduction in beta-lactamse activity preincubated with organism followed by AIP addition measured after 45 mins by nitrocefin hydrolysis assay
T2 sequence (O07911 whole entry): T1 sequence (whole entry)

## CCCCCCC(=O)N[C@H]1CCCCNC(=O)[C@H](CC(C)C)NC(=O)[C@H](C)NC(=O)[C@H](CC(C)C)NC(=O)[C@H](Cc2ccccc2)NC1=O (Heptanoyl-KFLAL; lactam 1-C)
[1]
  inhibition: inactive

## CCCCCCC(=O)N[C@H]1CNC(=O)[C@H](CC(C)C)NC(=O)[C@@H](C)NC(=O)[C@@H](CC(C)C)NC(=O)[C@H](Cc2ccccc2)NC1=O
[1]
  inhibition: inactive

## CCCCCCCCCCCC(=O)N[C@@H]1CNC(=O)[C@@H](CC(C)C)NC(=O)[C@@H](C)NC(=O)[C@@H](CC(C)C)NC(=O)[C@@H](Cc2ccccc2)NC1=O
[1]
  inhibition: Active

## CCCCCCC(=O)N[C@@H]1CNC(=O)[C@@H](CC(C)C)NC(=O)[C@@H](C)NC(=O)[C@@H](C)NC(=O)[C@@H](Cc2ccccc2)NC1=O
[1]
  inhibition: Active

## CCCCCCC(=O)N[C@@H]1CNC(=O)[C@@H](CC(C)C)NC(=O)[C@@H](C)NC(=O)[C@@H](CCC(C)C)NC(=O)[C@@H](Cc2ccccc2)NC1=O
[1]
  inhibition: Active
[2]
  IC50: 609 nM

## CCCCCCC(=O)N[C@H]1CCCNC(=O)[C@H](CC(C)C)NC(=O)[C@H](C)NC(=O)[C@H](CC(C)C)NC(=O)[C@H](Cc2ccccc2)NC1=O (Heptanoyl-[Orn]FLAL; lactam 1-C)
[1]
  inhibition: inactive

## CCCCCCC(=O)N[C@@H]1CNC(=O)[C@@H](CC(C)C)NC(=O)[C@@H](C)NC(=O)[C@@H](Cc2ccccc2)NC(=O)[C@@H](Cc2ccccc2)NC1=O
[1]
  inhibition: Active
[2]
  IC50: 739 nM

## CCCCCCC(=O)N[C@@H]1CNC(=O)[C@@H](C)NC(=O)[C@@H](C)NC(=O)[C@@H](CC(C)C)NC(=O)[C@@H](Cc2ccccc2)NC1=O
[1]
  inhibition: Active
[2]
  IC50: 69100 nM

## CCCCCCC(=O)N[C@@H]1CNC(=O)[C@@H](CC(C)C)NC(=O)[C@H](C)NC(=O)[C@H](CC(C)C)NC(=O)[C@@H](Cc2ccccc2)NC1=O
[1]
  inhibition: inactive

## CCCCCCC(=O)N[C@@H]1CNC(=O)[C@@H](CC(C)C)NC(=O)[C@@H](C)NC(=O)[C@@H](CC(C)C)NC(=O)[C@@H](Cc2c[nH]c3ccccc23)NC1=O
[1]
  inhibition: inactive

## CCCCCC(=O)N[C@@H]1CNC(=O)[C@@H](CC(C)C)NC(=O)[C@@H](C)NC(=O)[C@@H](CC(C)C)NC(=O)[C@@H](Cc2ccccc2)NC1=O
[1]
  inhibition: Active
[2]
  IC50: 1430 nM

## CCCCCCC(=O)N[C@@H]1CNC(=O)[C@@H](CC(C)C)NC(=O)[C@@H](C)NC(=O)[C@@H](CC(C)C)NC(=O)[C@@H](CCc2ccccc2)NC1=O
[1]
  inhibition: inactive

## CCCCCCC(=O)N[C@@H]1CNC(=O)[C@@H](CC(C)C)NC(=O)[C@@H](CC(C)C)NC(=O)[C@@H](CC(C)C)NC(=O)[C@@H](Cc2ccccc2)NC1=O
[1]
  inhibition: inactive

## CCCCCCC(=O)N[C@@H]1CNC(=O)[C@@H](CCC(C)C)NC(=O)[C@@H](C)NC(=O)[C@@H](CC(C)C)NC(=O)[C@@H](Cc2ccccc2)NC1=O
[1]
  inhibition: Active
[2]
  IC50: 913 nM

## CCCCCCC(=O)N[C@@H]1CNC(=O)[C@@H](CC(C)C)NC(=O)CNC(=O)[C@@H](CC(C)C)NC(=O)[C@@H](Cc2ccccc2)NC1=O
[1]
  inhibition: inactive

## CCCCCCC(=O)N[C@@H]1CNC(=O)[C@@H](CC(C)C)NC(=O)[C@@H](C)NC(=O)[C@@H](CC(C)C)NC(=O)[C@@H](C)NC1=O
[1]
  inhibition: Active

## COCCOCCOCC(=O)N[C@H]1CNC(=O)[C@H](CC(C)C)NC(=O)[C@H](C)NC(=O)[C@H](CC(C)C)NC(=O)[C@H](Cc2ccccc2)NC1=O ({Decanoyl(3,6,9-trioxa)}-[Dap]FLAL; lactam 1-C)
[1]
  inhibition: inactive

## CC(=O)NCC(=O)NCC(=O)NCC(=O)N[C@H]1CNC(=O)[C@H](CC(C)C)NC(=O)[C@H](C)NC(=O)[C@H](CC(C)C)NC(=O)[C@H](Cc2ccccc2)NC1=O (Ac-GGG[Dap]FLAL; lactam 4-C)
[1]
  inhibition: inactive

## CCCCCCCC(=O)N[C@@H]1CNC(=O)[C@@H](CC(C)C)NC(=O)[C@@H](C)NC(=O)[C@@H](CC(C)C)NC(=O)[C@@H](Cc2ccccc2)NC1=O
[1]
  inhibition: Active
[2]
  IC50: 457 nM

## CCCCCCCCCC(=O)N[C@H]1CNC(=O)[C@H](CC(C)C)NC(=O)[C@H](C)NC(=O)[C@H](CC(C)C)NC(=O)[C@H](Cc2ccccc2)NC1=O (Decanoyl-[Dap]FLAL; lactam 1-C)
[1]
  inhibition: Active

## CCCCCCC(=O)N[C@H]1CNC(=O)[C@H](Cc2ccccc2)NC(=O)[C@H](C)NC(=O)[C@H](CC(C)C)NC(=O)[C@H](CC(C)C)NC1=O
[1]
  inhibition: Active

## CCCCCCC(=O)N[C@@H]1CNC(=O)[C@@H](Cc2ccccc2)NC(=O)[C@@H](C)NC(=O)[C@@H](CC(C)C)NC(=O)[C@@H](CC(C)C)NC1=O
[1]
  inhibition: inactive

## CCCCCCC(=O)N[C@@H]1CNC(=O)[C@@H](CC(C)C)NC(=O)[C@@H](C)NC(=O)[C@@H](CC(C)C)NC(=O)[C@@H](Cc2cccc3ccccc23)NC1=O
[1]
  inhibition: inactive

## CCCCCCC(=O)N[C@H]1CNC(=O)[C@H](CC(C)C)NC(=O)[C@H](C)NC(=O)[C@H](CC(C)C)NC(=O)[C@H](Cc2ccccc2)NC1=O
[1]
  inhibition: Active
[2]
  IC50: 19100 nM

## CCCCCCC(=O)N[C@@H]1CNC(=O)[C@@H](CC(C)C)NC(=O)[C@@H](C)NC(=O)[C@@H](CC(C)C)NC(=O)[C@@H](Cc2ccccc2)NC1=O
[1]
  inhibition: Active
[2]
  IC50: 622 nM

## CC(=O)N[C@H]1CNC(=O)[C@H](CC(C)C)NC(=O)[C@H](C)NC(=O)[C@H](CC(C)C)NC(=O)[C@H](Cc2ccccc2)NC1=O (Ac-[Dap]FLAL; lactam 1-C)
[1]
  inhibition: inactive

## CCCCCCC(=O)N[C@H]1CCNC(=O)[C@H](CC(C)C)NC(=O)[C@H](C)NC(=O)[C@H](CC(C)C)NC(=O)[C@H](Cc2ccccc2)NC1=O (Heptanoyl-[Dab]FLAL; lactam 1-C)
[1]
  inhibition: inactive
